Assay results from US20230048678A1, “ICAN DERIVATIVES FOR ANTIFUNGAL USE” (DEBRECENI EGYETEM, priority 2019, published 2023).
“Also recorded” adds a separate entry of the source.

Columns and labels:
C. albicans isolate 3666 = test: Murine model, kidney fungal burden; assay type: in vivo, BALB/c mice; settings: immunosuppressed mice, 10^4 cfu/mouse iv
Method: During an independent in vivo experiment mice were infected intravenously with C. albicans isolate 3666. The infected mice were euthanized 2 or 6 days after infection (n=5 and 6 mice/time point, respectively), as disclosed herein, to determine the fungal burdens in the kidneys. Kidney burden was analyzed using a Kruskal-Wallis test with Dunn's posttest for multiple comparisons [Foldi R 2012, Kovacs R 2014]. Results of fungal burden experiments are shown on FIGS. 3b and c. […] It is well seen in […], that on day 6. the fungal burden increased by an order of magnitude (from −10^5 to −10^6) in the case of the untreated mice, while in the case of DIMICAN it remained the same as it was on day 2. The same is valid for AMB.
We used 10-12 week-old female BALB/c mice for all experiments. Mice were immunosuppressed using 150 mg/kg intraperitoneal (ip) cyclophosphamide dose (4 days prior to infection) and 100 mg/kg ip cyclophosphamide dose (1 day prior to infection; 2 and 5 days after infection) [Spellberg B, 2005]. All mice received ceftazidime (5 mg/day subcutaneously) from days 0 to 6 after infection. Mice were given food and water ad libitum and were monitored daily. The animals were maintained in accordance with the Guidelines for the Care and Use of Laboratory Animals, and the experiments were approved by the Animal Care Committee of the University of Debrecen, Debrecen, Hungary (permission no. 12/2014).
Mice were infected via the lateral tail vein with C. albicans 3666 bloodstream isolate. In the lethality (10 mice/group) and fungal tissue burden experiments (6 mice/group) the infectious doses were 3×10^4 and 10^4 cfu/mouse, respectively. These doses led to 100% and 0% mortality, respectively by day 6 after infection among untreated mice. Inoculum density was confirmed by plating serial dilutions onto Sabouraud dextrose agar (SDA) plates.
AMB (Fungizone, commercial preparation) and DIMICAN treatment in a 0.5-ml bolus was started 1 h after infection. The doses were 1 mg AMB and 5 mg DIMICAN (in olive oil/water (o/w) emulsion) per kg body weight. All antifungals were administered intraperitoneally once daily for 5 consecutive days.
Infected mice were euthanized 2 or 6 days after infection (n=6 mice/time point) to determine the fungal burden in the kidney. […] Aliquots of 0.1 ml of the undiluted and diluted homogenates were plated onto SDA, and the colony count was determined after 48 h. Colony-forming units (CFUs) were determined after 48 h of incubation at 37° C. and results were expressed as cfus/g tissue [Spellberg B, 2005]. […]
Survival effects were analyzed by the Kaplan—Meier log-rank test. Kidney burden was analysed using a Kruskal—Wallis test with Dunn's posttest for multiple comparisons [Foldi R 2012, Kovacs R 2014].

[1] = test system: clinical Candida isolates (C. albicans, C. krusei, C. tropicalis, C. glabrata, C. parapsilosis); test: Broth microdilution, MIC summarised over all clinical Candida isolates; assay type: cell-based; settings: range or bound over all tested isolates of five Candida species; read-out: total minimum inhibitory concentration (MICTI)
Method: The present inventors have discovered that 1-amino-5-isocyanonaphthalene (ICAN) and its derivatives exert excellent antifungal activity against a broad range of Candida species. […] Nevertheless, proper formulation and/or substitution with solubility enhancer groups on the naphthalene core may increase its effectiveness. Based on MIC values (MICPI=0.04−0.3 μg/ml MICTI=0.6 μg/ml) and its low cytotoxicity 1,1-N-dimethylamino-5-isocyanonaphthalene (DIMICAN) was selected to be tested on clinical Candida isolates. […] Amphotericin B (AMB) is an antifungal agent which is effective against a number of medically important fungi. The in vivo applicability of DIMICAN was tested on immunosuppressed mice and control experiments were also conducted with amphotericin B. In the model of acute invasive candidiasis, neutropenic mice were infected intravenously with C. albicans isolate 3666 (3×10^4 cfu/mouse) to establish an acute infection, and all untreated control animals died within 6 days. […]
The tested C. albicans, C. tropicalis, C. parapsilosis, C. glabrata and C. krusei ATCC strains and clinical isolates are listed in Table 2. MICs were determined according to the CLSI M27-A3 [22]. […] MICs were read visually after 48-h incubation at 35° C. using the partial (50%) inhibition (for ICAN derivatives) (PI) and total inhibition (for AMB and ICAN derivatives) (TI) criteria. MICs were determined at least twice. […]

C. tropicalis isolates = test: CLSI M27-A3 broth microdilution on Candida isolates (Table 2); assay type: cell-based
Method: (§1) The tested C. albicans, C. tropicalis, C. parapsilosis, C. glabrata and C. krusei ATCC strains and clinical isolates are listed in Table 2. MICs were determined according to the CLSI M27-A3 [22]. Antifungal agents were dissolved in 100% DMSO and diluted further in RPMI-1640 (with L-glutamine but without bicarbonate) (Sigma, Budapest, Hungary), and buffered to pH 7.0 with 0.165 M morpholinopropanesulfonic acid (MOPS; Sigma, Budapest, Hungary). The final concentration ranges used for AMB and ICAN derivatives were 0.125 to 4 μg/ml and 0.04 to 20 μg/ml, respectively. Yeast cell suspensions were prepared in RPMI 1640 medium and were adjusted to give a final inoculum concentration of 0.5×10^3 to 2.5×10^3 cells/ml. MICs were read visually after 48-h incubation at 35° C. using the partial (50%) inhibition (for ICAN derivatives) (PI) and total inhibition (for AMB and ICAN derivatives) (TI) criteria. MICs were determined at least twice. For amphotericin B isolates with MIC values of ≤2 mg/L were considered wild-types. [Pfaller M A, 2012]

C. krusei isolates = test: as above; assay type: cell-based
Method: as §1

C. parapsilosis isolates = test: as above; assay type: cell-based
Method: as §1

C. glabrata isolates = test: as above; assay type: cell-based
Method: as §1

C. albicans isolates = test: as above; assay type: cell-based
Method: as §1

C. krusei ATCC 6258 = test: CLSI broth microdilution susceptibility (Table 1); assay type: cell-based; settings: 48 h, 35° C.; for MICPI: partial (50%) inhibition; for MICTI: total inhibition
Method: (§2) ICAN has 3 key moieties, namely the amino, naphthalene and isonitrile. To find out which ones of them are essential for the antifungal behavior and to design more efficient derivatives, comparative studies were carried out, where one of the moieties was exchanged or eliminated. All ICAN derivatives were tested against C. albicans SC5314, C. krusei ATCC 6258 and C. parapsilosis ATCC 22019. The antifungal agents were dissolved in 100% DMSO and diluted further in RPMI-1640 (with L-glutamine but without bicarbonate) and buffered to pH 7.0 with 0.165 M morpholinopropanesulfonic acid (MOPS). MICs were read visually after 48-h incubation at 35° C. using the partial (50%) inhibition (for ICAN derivatives) (PI) and total inhibition (for AMB and ICAN derivatives) (TI) criteria. MICs were determined at least twice.
as §1

C. albicans SC5314 = test: CLSI broth microdilution susceptibility (Table 1); assay type: cell-based; settings: 48 h, 35° C.; for MICPI: partial (50%) inhibition; for MICTI: total inhibition
Method: as §2, §1

[2] = test system: C. parapsilosis ATCC 22019; test: CLSI broth microdilution susceptibility (Table 1); assay type: cell-based; settings: 48 h, 35° C.; for MICPI: partial (50%) inhibition; for MICTI: total inhibition
Method: as §2, §1

[3] = test system: C. albicans SC5314, C. krusei ATCC 6258 and C. parapsilosis ATCC 22019; test: CLSI broth microdilution, MIC summarised over the three Candida test strains; assay type: cell-based; settings: for MICTI: value or range over the three Candida strains of Table 1, total inhibition
Method: as §2, §1

human cell cultures = test: MTT bio assay cytotoxicity; assay type: cell-based; settings: MTT bio assay technique

C[C@@H]1[C@H](O)[C@@H](C)/C=C/C=C/C=C/C=C/C=C/C=C/C=C/[C@H](O[C@@H]2O[C@H](C)[C@@H](O)[C@H](N)[C@@H]2O)C[C@@H]2O[C@](O)(C[C@@H](O)C[C@@H](O)[C@H](O)CC[C@@H](O)C[C@@H](O)CC(=O)O[C@H]1C)C[C@H](O)[C@H]2C(=O)O [AMB, Amphotericin B, reference compound]
effect on kidney fungal burden, six days after infection (C. albicans isolate 3666; 5 mg/kg DIMICAN or 1 mg/kg AMB ip once daily for 5 days, p<0.05 (AMB), p<0.001 (DIMICAN) vs control): efficient; also recorded: significantly lower fungal burden | effect on kidney fungal burden, two days after infection (C. albicans isolate 3666; 5 mg/kg DIMICAN or 1 mg/kg AMB ip once daily, P>0.05 vs control): no effect on fungal load | MIC [1]: ≤ 2 µg/mL | MICTI (C. tropicalis isolates; isolate 579): 0.5 µg/mL | MICTI (C. tropicalis isolates; isolate 622): 1 µg/mL | MICTI (C. tropicalis isolates; isolate 1776): 1 µg/mL | MICTI (C. tropicalis isolates; isolate 2467): 0.5 µg/mL | MICTI (C. tropicalis isolates; isolate 3014): 0.5 µg/mL | MICTI (C. tropicalis isolates; isolate 5115): 0.5 µg/mL | MICTI (C. tropicalis isolates; isolate 5806): 0.25 µg/mL | MICTI (C. tropicalis isolates; isolate ATCC 750): 0.5 µg/mL | MICTI (C. krusei isolates; isolate 749): 1 µg/mL | MICTI (C. krusei isolates; isolate 1853): 1 µg/mL | MICTI (C. krusei isolates; isolate 4364): 1 µg/mL | MICTI (C. krusei isolates; isolate 5029): 1 µg/mL | MICTI (C. krusei isolates; isolate 5072): 1 µg/mL | MICTI (C. krusei isolates; isolate 25504): 0.5 µg/mL | MICTI (C. krusei isolates; isolate 34987): 1 µg/mL | MICTI (C. krusei isolates; isolate ATCC 6258): 1 µg/mL | MICTI (C. parapsilosis isolates; isolate 4133): 0.25 µg/mL | MICTI (C. parapsilosis isolates; isolate 9613): 0.25 µg/mL | MICTI (C. parapsilosis isolates; isolate 10252): 0.5 µg/mL | MICTI (C. parapsilosis isolates; isolate 18154): 0.5 µg/mL | MICTI (C. parapsilosis isolates; isolate 27001): 0.25 µg/mL | MICTI (C. parapsilosis isolates; isolate ATCC 22019): 0.5 µg/mL | MICTI (C. glabrata isolates; isolate 14408): 0.5 µg/mL | MICTI (C. glabrata isolates; isolate 14559): 0.5 µg/mL | MICTI (C. glabrata isolates; isolate 22394): 0.5 µg/mL | MICTI (C. glabrata isolates; isolate 23429): 1 µg/mL | MICTI (C. glabrata isolates; isolate 23481): 1 µg/mL | MICTI (C. glabrata isolates; isolate 27643): 0.5 µg/mL | MICTI (C. glabrata isolates; isolate 28557): 0.5 µg/mL | MICTI (C. glabrata isolates; isolate ATCC 90030): 0.5 µg/mL | MICTI (C. albicans isolates; isolate 456): 0.5 µg/mL | MICTI (C. albicans isolates; isolate 665): 1 µg/mL | MICTI (C. albicans isolates; isolate 685): 0.25 µg/mL | MICTI (C. albicans isolates; isolate 720): 0.5 µg/mL | MICTI (C. albicans isolates; isolate 963): 0.5 µg/mL | MICTI (C. albicans isolates; isolate 1544): 0.25 µg/mL | MICTI (C. albicans isolates; isolate 3666): 0.5 µg/mL | MICTI (C. albicans isolates; isolate 8658): 1 µg/mL | MICTI (C. albicans isolates; isolate ATCC 10231): 0.25 µg/mL

Nc1cccc2c(N)cccc12 [DAN, 1,5-diaminonaphthalene, reference compound]
MICPI (C. krusei ATCC 6258): 50 µg/mL | MICTI (C. krusei ATCC 6258): 100 µg/mL | MICPI (C. albicans SC5314): 50 µg/mL | MICTI (C. albicans SC5314): 100 µg/mL | MICPI [2]: 50 µg/mL | MICTI [2]: 100 µg/mL

[C-]#[N+]c1cccc2c([N+]#[C-])cccc12 [DIN, 1,5-diisocyanonaphthalene]
MICPI (C. krusei ATCC 6258): 0.3 µg/mL | MICTI (C. krusei ATCC 6258): 0.6 µg/mL | MICPI (C. albicans SC5314): 0.3 µg/mL | MICTI (C. albicans SC5314): 0.6 µg/mL | MICPI [2]: 0.3 µg/mL | MICTI [2]: 0.6 µg/mL | MICPI ([3]; value or range over the three Candida strains of Table 1, partial (50%) inhibition): 0.3 µg/mL | MICTI [3]: 0.6 µg/mL

[C-]#[N+]c1cccc2c(NCC)cccc12 [EICAN, N-ethyl-1-amino-5-isocyanonaphthalene]
MICPI (C. krusei ATCC 6258): 0.6 µg/mL | MICTI (C. krusei ATCC 6258): 1.25 µg/mL | MICPI (C. albicans SC5314): 0.6 µg/mL | MICTI (C. albicans SC5314): 2.5 µg/mL | MICPI [2]: 0.6 µg/mL | MICTI [2]: 1.25 µg/mL | MICTI [3]: 1.25 to 2.5 µg/mL

[C-]#[N+]c1cccc2c(N)cccc12 [ICAN, 1-amino-5-isocyanonaphthalene]
LD50 (human cell cultures): 10 µg/mL | MICPI (C. krusei ATCC 6258): 0.6 µg/mL | MICTI (C. krusei ATCC 6258): 2.5 µg/mL | MICPI (C. albicans SC5314): 1.25 µg/mL | MICTI (C. albicans SC5314): 5 µg/mL | MICPI [2]: 0.3 µg/mL | MICTI [2]: 0.6 µg/mL | MICTI [3]: 0.6 to 5 µg/mL

[C-]#[N+]c1ccc([N+]#[C-])cc1 [PDI, 1,4-phenylenediisocyanide, reference compound]
MICPI (C. krusei ATCC 6258): 50 µg/mL | MICTI (C. krusei ATCC 6258): 100 µg/mL | MICPI (C. albicans SC5314): 50 µg/mL | MICTI (C. albicans SC5314): 100 µg/mL | MICPI [2]: 50 µg/mL | MICTI [2]: 100 µg/mL

[C-]#[N+]c1cccc2c(NCCC)cccc12 [PICAN, N-(prop-1-yl)-1-amino-5-isocyanonaphthalene]
MICPI (C. krusei ATCC 6258): 0.15 µg/mL | MICTI (C. krusei ATCC 6258): 2.5 µg/mL | MICPI (C. albicans SC5314): 0.6 µg/mL | MICTI (C. albicans SC5314): 2.5 µg/mL | MICPI [2]: 0.6 µg/mL | MICTI [2]: 1.75 µg/mL | MICTI [3]: 1.75-2. μg/ml
